Results on one molecule are retold here after PMC6207684, “Structural reorganization of SHP2 by oncogenic mutations and implications for oncoprotein resistance to allosteric inhibition” (Nature Communications, 2018).

SMILES strings stand for the structures.

Test [1] has as its system cancer cell lines that are dependent on receptor tyrosine kinases and wild-type SHP2. Also on record: method as in PMID 27362227. To be noted: cited from earlier work.
A further test deals with wild-type SHP2. Details: method as in PMID 27362227. To be noted: biochemical assays; cited from earlier work.
The subject of test [2] is PTPN11-null U2OS cells expressing SHP2^E76K. Briefly: Western blot pErk quantification. The test is classed as cell-based. To be noted: SHP2^E76K in PTPN11-null U2OS cells (other cancer mutants investigated). An excerpt:
(§1) PTPN11−/−/− U2OS cells were generated using the methodology described by Zhang et al.[25]. In brief, CRISPR guides against the first three exons of the PTPN11 proto-oncogene were designed using the Sanger CRISPR database, cloned into the pSpCas9(BB)-2A-GFP vector, transfected into U2OS (ATCC® HTB-96^TM) cells using manufacturer-recommended Fugene®HD methodologies, and assayed for knockdown of SHP2 protein levels, via western blot, in bulk.
(§2) Mammalian SHP2 expression plasmids were designed from pCMV-SHP2 WT, which was provided as a gift from Ben Neel (Addgene plasmid #8381), using site-directed mutagenesis (QuikChange, Agilent; see Supplementary Table 4 for the sequences of all primers used in this study). Mutation acquisition and plasmid identity were confirmed via DNA sequencing.
(§3) Lysis was visually confirmed with light microscopy, and lysates were added to gel loading buffer and run on Novex^TM wedgewell^TM 12% Tris-Glycine gels (Invitrogen XP00122) at 180 V for 1 h. Proteins were transferred from gels to polyvinylidene difluoride membranes using an iBlot 2 Dry Blotting System (Thermo Fisher IB21001). After transfer, membranes were blocked with either 5% bovine serum albumin or 5% nonfat milk in tris-buffered saline with tween (TBST) at room temperature for 1 h and then incubated with primary antibody (CST 9101 pErk at 1:500 dilution, CST 9102 Erk at 1:500 dilution, CST 3752 SHP2 at 1:300 dilution, or Sigma A1978 β-Actin at 1:3000 dilution) in respective blocking solution overnight at 4 °C, washed 3 × with TBST for 5 min, incubated with secondary antibody (ECL^TM Anti-Rabbit GE NA934V or Anti-Mouse GE NXA931V at 1:10,000 dilution) in respective blocking solution for 1 h at room temperature, and washed 3 x with TBST for 5 min. Following final wash, membranes were imaged on a GE Amersham Imager 600 using SuperSignal® West Pico Chemiluminescent Substrate (Pierce 34080). Linear brightness and contrast adjustments were applied uniformly across the entire image, and band densities were quantified using Fiji[24]. Western blot images are representative of at least two replicates, which were performed on different days.
(In general: In western blotting, separated proteins are transferred to a membrane and probed.)

Test [3] deals with PTPN11-null U2OS cells expressing SHP2^D61V. Briefly: Western blot pErk quantification. The test is classed as cell-based. To be noted: SHP2^D61V in PTPN11-null U2OS cells (other cancer mutants investigated).
Excerpt: as §1, §2, §3

Test [4] concerns PTPN11-null U2OS cells re-expressing SHP2^WT. Briefly: Western blot pErk quantification. The test is classed as cell-based.
Excerpt: as §1, §2, §3

Test [5] concerns PTPN11-null U2OS cells expressing SHP2^S502P. The test can be described thus: Western blot pErk quantification. It is filed as cell-based. The conditions noted are these: SHP2^S502P in PTPN11-null U2OS cells; 50 μM SHP099.
Excerpt: as §1, §2, §3

Test [6] has as its system PTPN11-null U2OS cells expressing SHP2^G60V. Briefly: Western blot pErk quantification. The conditions noted are these: SHP2^G60V in PTPN11-null U2OS cells (other cancer mutants investigated). The test is classed as cell-based.
Excerpt: as §1, §2, §3

Test [7] has as its system PTPN11-null U2OS cells expressing SHP2^F285S. The test can be described thus: Western blot pErk quantification. To be noted: read-out: IC50 for pErk reduction by SHP099; PTPN11-null U2OS cells harboring SHP2^F285S; 2 h treatment. It is filed as cell-based.
Excerpt: as §1, §2, §3

The next test has as its system wild-type U2OS cells. The test can be described thus: Western blot pErk quantification. It is filed as cell-based. The protocol:
as §3

A further test relates to PTPN11-null U2OS cells. The test can be described thus: Western blot pErk quantification. It is filed as cell-based. The conditions noted are these: 2 h treatment.
Excerpt: as §1
Lysis was visually confirmed with light microscopy, and lysates were added to gel loading buffer and run on Novex^TM wedgewell^TM 12% Tris-Glycine gels (Invitrogen XP00122) at 180 V for 1 h. Proteins were transferred from gels to polyvinylidene difluoride membranes using an iBlot 2 Dry Blotting System (Thermo Fisher IB21001). […] Linear brightness and contrast adjustments were applied uniformly across the entire image, and band densities were quantified using Fiji[24]. […]

The next test relates to U2OS cells. The test can be described thus: pERK induction by EGF stimulation in serum-starved U2OS cells, western blot. It is filed as cell-based. To be noted: U2OS serum starved 48 hours; SHP099 10 µM for 2 hours; EGF 5 nM; lysed 10 min after stimulation. The protocol: or vehicle cont rol f or 2 hours, and t hen st imulat ed wit h EGF. Cells were lysed on ice 10 min
af t er st imulat ion, and pErklevels were analyzed by western blot. […]

Take `CC1(N)CCN(c2cnc(-c3cccc(Cl)c3Cl)c(N)n2)CC1` [SHP099]: the antiproliferative activity entry in test [1] is reported as “antiproliferative activity”. In addition, the “affinity for wild-type SHP2” value with wild-type SHP2 is given as “nanomolar affinity”. The “inhibition of Erk phosphorylation” value in test [2], in [3] and in test [6] was “does not significantly inhibit Erk phosphorylation” in each case. Also, the “reduction of pErk levels by SHP099 (incomplete, maximal)” value in test [4] (SHP2^WT-rescued PTPN11-null U2OS cells) was ~ 65%. Also, the IC50 (commonly the concentration needed to halve the response being measured) in [4] (read-out: IC50 for pErk reduction by SHP099, PTPN11-null cells re-expressing SHP2^WT, 2 h treatment, western blot densitometry) came out at 4 ± 2 µM; in test [7], 8 ± 2 µM; in the test on wild-type U2OS cells (read-out: IC50 for pErk reduction by SHP099, 2 h treatment, western blot densitometry), 2 ± 1 µM. In addition, in test [5], the “loss of pErk” value is given as “little, if any, loss of pErk”. The “pErk levels upon SHP099 treatment (western blot)” value with wild-type U2OS cells (2 h treatment) is given as “dramatically reduces pErk levels”; in the test with PTPN11-null U2OS cells, “unaffected”. For the same molecule, the “pERK induction in response to EGF stimulation” value in the test with U2OS cells is reported as “attenuated”.
